Structures can show the parent of a compound that is named as a salt.

For orientation: IC50 means the concentration needed to halve the response being measured. Higher therefore signals a need for much substance.

For one experiment, the target named is Steroidogenic factor 1 (Homo sapiens, UniProt Q13285). Nature of the experiment: inhibition of SF-1 LBD-driven luciferase – cell-based, CHO-K1, Gal4-SF-1 LBD, luciferase luminescence, counter-screen for RORA inhibitor project, dose response (AID 611).
Sequence of Steroidogenic factor 1 (Q13285 whole entry, the tested form may be a part): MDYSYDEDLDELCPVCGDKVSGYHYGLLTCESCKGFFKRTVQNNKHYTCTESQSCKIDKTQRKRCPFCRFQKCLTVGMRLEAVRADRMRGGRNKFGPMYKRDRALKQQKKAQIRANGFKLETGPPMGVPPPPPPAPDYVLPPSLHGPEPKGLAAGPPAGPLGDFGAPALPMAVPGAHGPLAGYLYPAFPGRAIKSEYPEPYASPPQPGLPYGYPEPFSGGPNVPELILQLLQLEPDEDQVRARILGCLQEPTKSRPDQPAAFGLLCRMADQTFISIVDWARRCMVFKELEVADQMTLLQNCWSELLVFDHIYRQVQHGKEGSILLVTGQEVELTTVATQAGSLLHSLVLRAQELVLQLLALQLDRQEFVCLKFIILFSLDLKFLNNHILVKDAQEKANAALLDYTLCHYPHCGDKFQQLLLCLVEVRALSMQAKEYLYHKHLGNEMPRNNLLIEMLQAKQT
Conditions: not given
(In general: Counterscreens check selectivity or assay interference.)
In turn, `O=C(NCc1ccco1)c1ccc2nc3sc4c(c3c(=O)n2c1)CCCC4` [MLS000091875] had an IC50 of over 4.06 µM.
In turn, `Cc1cccc(NC(=O)CSc2nnc(-c3cc(C)n(-c4ccccc4)c3C)o2)c1C` [MLS000036049] came in with an IC50 of 3.29 µM.
With `c1ccc(-n2ncc3c(N4CCCCC4)ncnc32)cc1` [1-phenyl-4-(1-piperidinyl)pyrazolo[3,4-d]pyrimidine], the 50% inhibitory concentration (IC50) worked out at 4.47 µM.
In turn, `Cc1cccc(-n2ncc3c(N4CCOCC4)ncnc32)c1` [4-[1-(3-methylphenyl)-4-pyrazolo[3,4-d]pyrimidinyl]morpholine] registered an IC50 of over 3.67 µM.
In turn, `C[C@@]1(CO)[C@H](O)CC[C@@]2(C)[C@H]1CC[C@H]1C[C@@H]3C[C@@]12CC[C@]3(O)CO` [6,13-di(hydroxymethyl)-2,6-dimethyl-(1S,2S,5R,6R,7R,10S,12R,13R)-tetracyclo[10.3.1.01,10.02,7]hexadecane-5,13-diol (Aphidicolin)] returned an IC50 of 0.519 µM.
`COc1cc2nc(CN3CC=C(c4ccccc4)CC3)nc(O)c2cc1OC` [MLS000053305] displayed an IC50 of 2.36 µM.
The compound `CC(=O)c1c(C)[nH]c(C(=O)OCCCCN2C(=O)c3ccccc3C2=O)c1C` [4-acetyl-3,5-dimethyl-1H-pyrrole-2-carboxylic acid 4-(1,3-dioxo-2-isoindolyl)butyl ester] showed an IC50 of 5.04 µM.
`c1c2c(cc3sc(N4CCOCC4)nc13)OCCO2` [2-(4-morpholinyl)-6,7-dihydro-[1,4]dioxino[2,3-f][1,3]benzothiazole]: the IC50 was over 3.67 µM.
`Oc1c(CN2CCCCC2)cc(COCc2ccccc2)c2cccnc12` [5-(benzoxymethyl)-7-(piperidinomethyl)quinolin-8-ol]: the IC50 was 7.58 µM.
As to `[H][C@@]12C[N@@](CCc3c([nH]c4ccccc34)[C@@](C(=O)OC)(c3cc4c(cc3OC)N(C=O)[C@]3([H])[C@]45CC[N@@]4CC=C[C@@](CC)([C@@H](OC(C)=O)[C@]3(O)C(=O)OC)[C@]45[H])C1)C[C@](O)(CC)C2`, the IC50 was found to be 2.11 µM.
Still for that read-out and setting: for `COC(=O)/C(=C1/Oc2cc(C)oc(=O)c2S1)C(F)(F)F` [methyl (2E)-3,3,3-tris(fluoranyl)-2-(6-methyl-4-oxidanylidene-[1,3]oxathiolo[4,5-c]pyran-2-ylidene)propanoate] the value was 4.32 µM.
As for `O=C(c1ccc(Cl)cc1)N1CCCCC(Sc2nnc(-c3ccc4c(c3)OCO4)o2)C1=O` (stereo not drawn) [3-[[5-(1,3-benzodioxol-5-yl)-1,3,4-oxadiazol-2-yl]sulfanyl]-1-(4-chlorobenzoyl)azepan-2-one], half-maximal inhibition (IC50) was put at 1.46 µM.
The same measure, in the same setting: the same measure for `O=S(=O)(NCc1ccncc1)c1ccc(Br)s1` [5-bromanyl-N-(pyridin-4-ylmethyl)thiophene-2-sulfonamide]: 3.74 µM.
Turning to `c1ccc(-c2cn3c4c(sc3n2)CCCC4)cc1` [2-phenyl-5,6,7,8-tetrahydroimidazo[2,1-b][1,3]benzothiazole], the IC50 is 4.27 µM.
For `Cc1ccc(N=C2Nc3ccccc3CS2)cc1`, the IC50 is over 11 µM.
Regarding `Cc1cc(C)cc(Nc2ccc(C(=O)O)cc2N)c1` [3-amino-4-(3,5-dimethylanilino)benzoic acid], the IC50 is over 99 µM.
Consider `Fc1ccc2[nH]c3c(N4CCN(Cc5ccc6c(c5)OCO6)CC4)ncnc3c2c1` [4-[4-(1,3-benzodioxol-5-ylmethyl)-1-piperazinyl]-8-fluoro-5H-pyrimido[5,4-b]indole], for which the IC50 was determined as 3.38 µM.
Same read-out and setting: for `O=C(O)c1cccc(COc2ccccc2Cl)c1` [3-[(2-chloranylphenoxy)methyl]benzoic acid] the value was 0.582 µM; for `CCOc1ccc(-c2noc(CCC(=O)O)n2)cc1` [3-(3-p-phenetyl-1,2,4-oxadiazol-5-yl)propionic acid], 8.46 µM.
As to `N#CC(C#N)=c1ccc2c(c1)NC1(CCCCC1)N=2` [2-spiro[3H-benzimidazole-2,1'-cyclohexane]-5-ylidenepropanedinitrile], half-maximal inhibition (IC50) was put at 9.07 µM.
`c1ccc(-c2cccc(-c3ccccn3)n2)nc1` [2,6-bis(2-pyridinyl)pyridine] returned an IC50 of 2.81 µM.
The compound `Cc1cnc(NC(=O)COc2ccccc2Cl)s1` [2-(2-chloranylphenoxy)-N-(5-methyl-1,3-thiazol-2-yl)ethanamide] had an IC50 of 5.63 µM.
As to `CN(C)C(=O)CCc1nc(-c2ccc(C(C)(C)C)cc2)no1` [3-[3-(4-tert-butylphenyl)-1,2,4-oxadiazol-5-yl]-N,N-dimethyl-propanamide], the IC50 stood at 1.1 µM.
For `COc1ccc(-c2cc3nc4n(c(=O)c3s2)CCC4)cc1` [2-(4-methoxyphenyl)-6,7-dihydropyrrolo[1,2-a]thieno[3,2-d]pyrimidin-9(5H)-one], the IC50 was over 3.67 µM.
On the same count and under the same terms, the same measure for `O=C(NC1CC1)c1ccc(-c2nc3ccccc3s2)s1` [5-(1,3-benzothiazol-2-yl)-N-cyclopropyl-2-thiophenecarboxamide]: 9.53 µM.
The same measure, in the same setting: the same measure for `c1ccc2c(c1)CCN(c1nc3cc4c(cc3s1)OCCO4)C2` [2-(3,4-dihydro-1H-isoquinolin-2-yl)-6,7-dihydro-[1,4]dioxino[2,3-f][1,3]benzothiazole]: 4.35 µM.
In turn, `CC1CCCCC1NS(=O)(=O)c1ccc(S(=O)(=O)NCc2ccncc2)cc1` (stereo not drawn) [4-N-(2-methylcyclohexyl)-1-N-(pyridin-4-ylmethyl)benzene-1,4-disulfonamide] displayed an IC50 of 8.38 µM.
In turn, `O=C(NCCOc1ccccc1)c1ccc2c(c1)OCO2` [MLS000100028] showed an IC50 of 9.86 µM.
Same read-out and setting: the same measure for `Cc1ccc(-c2noc(CCCC(=O)Nc3cccnc3)n2)cc1` [4-[3-(4-methylphenyl)-1,2,4-oxadiazol-5-yl]-N-(3-pyridinyl)butanamide]: 8.03 µM.
Compound `COc1cccc2c1C(=O)c1c(O)c3c(c(O)c1C2=O)C[C@@](O)(C(C)=O)C[C@@H]3O[C@H]1C[C@H](N)[C@H](O)[C@H](C)O1` [(7S,9S)-9-acetyl-7-[(2R,4S,5S,6S)-4-amino-5-hydroxy-6-methyloxan-2-yl]oxy-6,9,11-trihydroxy-4-methoxy-8,10-dihydro-7H-tetracene-5,12-dione;hydrochloride] yielded an IC50 of 0.409 µM.
In the case of `Nc1ccc(-c2nc3c(Cl)cc(N)cc3[nH]2)cc1` [MLS000034140], the IC50 was found to be 5.43 µM.
With `CC(C)NCC(O)Cn1c2c(c3ccccc31)CCc1c-2cnn1-c1ccccc1` (stereo not drawn) [1-(3-phenyl-4,5-dihydropyrazolo[4,3-a]carbazol-10-yl)-3-(propan-2-ylamino)-2-propanol], the half-inhibitory concentration (IC50) was 8.75 µM.
For `Cc1ccccc1NC(=O)c1cnc2ccccn2c1=O` [4-keto-N-(o-tolyl)pyrido[1,2-a]pyrimidine-3-carboxamide], the IC50 is over 11 µM.
With `COc1ccc(-c2nc(-c3ccccc3)no2)c(OC)c1` [5-(2,4-dimethoxyphenyl)-3-phenyl-1,2,4-oxadiazole], half-maximal inhibition (IC50) was put at 2.82 µM.
In turn, `Cc1ccc(Nc2cc(C)nn2-c2nc(C)cc(O)n2)cc1` [6-methyl-2-[3-methyl-5-(4-methylanilino)pyrazol-1-yl]-1H-pyrimidin-4-one] returned an IC50 of 4.15 µM.
The same measure, in the same setting: the same measure for `COc1cccc(N2CCN(c3ncnc4c3[nH]c3ccccc34)CC2C)c1` (stereo not drawn) [4-[4-(3-methoxyphenyl)-3-methyl-1-piperazinyl]-5H-pyrimido[5,4-b]indole]: 4.85 µM; for `CCn1nc(-c2ccccc2)nc2c(=O)n(C)c(=O)nc1-2` [1-Ethyl-6-methyl-3-phenyl-1H-pyrimido[5,4-e][1,2,4]triazine-5,7-dione]: 3.72 µM; for `Cc1cc(N2CCN(c3nc4ccccc4s3)CC2)n2ncnc2n1` [2-[4-(5-methyl-[1,2,4]triazolo[1,5-a]pyrimidin-7-yl)-1-piperazinyl]-1,3-benzothiazole]: 9.02 µM.
On the same count and under the same terms, for `O=c1c2ccccc2cnn1-c1nc2ccccc2s1` [2-(1,3-benzothiazol-2-yl)-1-phthalazinone] the value was 0.728 µM; for `O=C(O)c1cccc(COc2ccc(CO)cc2Cl)c1` [3-[(2-chloro-4-methylol-phenoxy)methyl]benzoic acid], 0.329 µM; for `O=C1c2ccccc2C(=O)C1c1ccc2ccccc2n1`, 4.75 µM.
`O=S1(=O)C=C(Sc2nc3cc(Cl)ccc3o2)c2ccccc21` [SMR000019512] registered an IC50 of 5.99 µM.
For the compound `CCOc1ccc(-c2nc(CSCC(=O)NCc3ccco3)c(C)o2)cc1` [2-({[2-(4-ethoxyphenyl)-5-methyl-1,3-oxazol-4-yl]methyl}thio)-N-(2-furylmethyl)acetamide], the IC50 came out at 0.259 µM.
As to `Cn1nc(C(C)(C)C)cc1C(=O)NCc1ccc(N2CCCC2=O)cc1` [5-tert-Butyl-2-methyl-2H-pyrazole-3-carboxylic acid 4-(2-oxo-pyrrolidin-1-yl)-benzylamide], 3.18 µM corresponded to half-maximal inhibition (IC50).

Staying with this experiment, now noted: inactive by the depositor's call.
For the compound `COc1ccccc1-c1cc(C(F)(F)F)nc(S(=O)(=O)CCCC(=O)Nc2cc(C)on2)n1` [4-[4-(2-methoxyphenyl)-6-(trifluoromethyl)pyrimidin-2-yl]sulfonyl-N-(5-methyl-1,2-oxazol-3-yl)butanamide], the IC50 is 13.2 µM.
`O=C(CSc1nnc(Cn2nnc3ccccc32)o1)N(Cc1ccc(F)cc1)c1ccccc1` [2-(5-Benzotriazol-1-ylmethyl-[1,3,4]oxadiazol-2-ylsulfanyl)-N-(4-fluoro-benzyl)-N-phenyl-acetamide] yielded an IC50 of 11 µM.
Same read-out and setting: for `Nc1ccc2oc(-c3cc(Br)ccc3Cl)nc2c1` [2-(5-bromanyl-2-chloranyl-phenyl)-1,3-benzoxazol-5-amine] the value was 66.2 µM.
Same read-out and setting: the same measure for `CC(=O)c1ccc(N2CCN(c3ccc(C(F)(F)F)cn3)CC2)cc1` [1-[4-[4-[5-(trifluoromethyl)-2-pyridinyl]-1-piperazinyl]phenyl]ethanone]: 11.4 µM; for `c1ccc(CN2CCN(c3ncnc4c3[nH]c3ccccc34)CC2)cc1` [MLS000078384]: 11.3 µM; for `COc1ccc2[nH]c(=O)c3c(c2c1)OC(C)(C)C=C3`: 16.5 µM.
On to `CCCOC(=O)c1[nH]c2c(c1C)C(=O)CC(c1cc(OC)c(OC)c(OC)c1)C2` (stereo not drawn) [MLS000116504], for which the IC50 was found to be 11.5 µM.
With `Cc1ccc2c(c1)nnn2C1CCN(S(=O)(=O)c2ccc(C(=O)N3C(C)CCCC3C)cc2)CC1` (stereo not drawn) [(2,6-Dimethyl-piperidin-1-yl)-{4-[4-(5-methyl-benzotriazol-1-yl)-piperidine-1-sulfonyl]-phenyl}-methanone], the IC50 is 10.6 µM.
For `Cc1ccc(F)cc1NC(=O)Cc1nn(C)c(=O)c2ccccc12` [MLS000047013], half-maximal inhibition (IC50) required 12.2 µM.

(Values after BindingDB's records for doi:10.7270/Q2PR7TCX (The Scripps Research Institute Molecular Screening Center, 2007).)
